Results: patent US20070134261A1, “Effectors of innate immunity” (priority 2001, published 2007)
Where two headings read alike, the source gives them in different places.

System: whole human blood
Format: cell-based
Details: 4 hr (0 μg/ml: 3205)

CC[C@H](C)[C@H](N)C(=O)N[C@@H](CC(C)C)C(=O)N1CCC[C@H]1C(=O)N[C@@H](Cc1c[nH]c2ccccc12)C(=O)N[C@@H](CCCCN)C(=O)N[C@@H](Cc1c[nH]c2ccccc12)C(=O)N1CCC[C@H]1C(=O)N[C@@H](Cc1c[nH]c2ccccc12)C(=O)N[C@@H](Cc1c[nH]c2ccccc12)C(=O)N1CCC[C@H]1C(=O)N[C@@H](Cc1c[nH]c2ccccc12)C(=O)N[C@@H](CCCNC(=N)N)C(=O)N[C@@H](CCCNC(=N)N)C(N)=O [SEQ ID NO: 2]
IL-8 (10 μg/ml peptide + E. coli O111:B4 LPS): 1912 pg/mL | IL-8 (50 μg/ml peptide + E. coli O111:B4 LPS): 1458 pg/mL
